Measurements published in article PMC8346053, “Towards Novel 3-Aminopyrazinamide-Based Prolyl-tRNA Synthetase Inhibitors: In Silico Modelling, Thermal Shift Assay and Structural Studies” (International Journal of Molecular Sciences, 2021).
Values joined by “and” are separate entries in the source; they are usually repeats but may differ in a detail not shown here. Equal values may be shown once. Read-outs that look alike come from different tables or passages of the source.

What was measured:
recombinant HcProRS = biological target: T1, recombinant HcProRS (Homo sapiens, UniProt P07814); experiment: fluorescence-based thermal shift assay (TSA); assay type: binding; conditions: for Tm with 1 mM L-Pro / Tm without L-Pro / ∆Tm without L-Pro / ∆Tm with 1 mM L-Pro: 100 µM compound; for Tm with 1 mM L-Pro / Tm without L-Pro / EC50 / ∆Tm without L-Pro / ∆Tm with 1 mM L-Pro: 3.45 µM HcProRS; for Tm with 1 mM L-Pro: reference Tm with Pro only 60.20; for Tm without L-Pro / ∆Tm without L-Pro: absence of Pro; for Tm without L-Pro: reference Tm of HcProRS 56.15; for ∆Tm without L-Pro: difference of Tm with and without compound; for ∆Tm with 1 mM L-Pro: versus HcProRS with 1 mM Pro only; for effect on Tm (in words): full datasets, with and without Pro; for fold better (lower) EC50 compared with 4d: relative to 4d
T1 construct: SUMO (N, cleaved yes); made in house; host or cells: E. coli Rosetta 2 (DE3) pLysS
T1 sequence (P07814 1001-1512): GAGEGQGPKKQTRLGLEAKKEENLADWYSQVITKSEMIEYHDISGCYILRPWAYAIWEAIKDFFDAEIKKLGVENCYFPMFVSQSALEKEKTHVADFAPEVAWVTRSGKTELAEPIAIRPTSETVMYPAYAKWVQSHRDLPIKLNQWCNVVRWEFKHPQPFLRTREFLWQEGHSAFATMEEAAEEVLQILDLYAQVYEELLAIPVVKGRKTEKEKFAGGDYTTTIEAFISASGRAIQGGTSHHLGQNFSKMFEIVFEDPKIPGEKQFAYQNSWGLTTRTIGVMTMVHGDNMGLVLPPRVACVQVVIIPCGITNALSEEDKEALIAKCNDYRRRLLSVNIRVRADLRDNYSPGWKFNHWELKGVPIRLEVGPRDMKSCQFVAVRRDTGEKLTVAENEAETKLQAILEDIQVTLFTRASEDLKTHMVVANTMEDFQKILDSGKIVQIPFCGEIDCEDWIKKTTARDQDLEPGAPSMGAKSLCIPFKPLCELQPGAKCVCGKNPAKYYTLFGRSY
Description: Compound binding usually helps to stabilize the protein due to protein-ligand interactions, resulting in an increase of the melting temperature (Tm) of the target protein during the thermal denaturation process. Each compound was pre-tested at 100 µM concentration against 3.45 µM HcProRS in the absence and presence of 1 mM Pro. The ∆Tm was calculated based on the difference between the Tm values of HcProRS with and without compound. […] In the presence of the natural substrate Pro, the Tm of HcProRS increased by 4 °C. […] In a second-tier characterization, the Tm-based EC50 values of these five hits were determined. […] This is in good agreement with the prior reported improved binding affinity and inhibitory activity of 2a in the presence of Pro when compared to the corresponding values obtained without Pro [16].
A total of 0.2 mg/mL HcProRS (corresponding to 3.45 µM) was incubated with various concentrations of different compounds in the absence or presence of 1 mM L-Pro with 1x thermal shift dye (Life Technologies, California, USA) in reaction buffer containing 50 mM HEPES pH 7.0, 150 mM KCl and 10% (v/v) ethylene glycol. Aliquots (20 µL) were transferred to a 96-well PCR plate in triplicate. After centrifugation to remove air bubbles, the plate was measured in Applied Biosystems® Protein Thermal Shift machine and subjected to a thermal gradient from 4 °C to 95 °C with the increasing rate of 0.05 °C/s. The fluorescence was detected by Protein Thermal Shift™ Software (Life Technologies, California, USA). Data analysis was performed by Boltzmann sigmoidal fitting to calculate melting temperature (Tm).
Figure S2. Dose-response melting curves of HcProRS in the presence of compound and 1 mM Pro. The melting temperature (Tm) at each compound concentration was determined by TSA with 3.45 µM of HcProRS. The reported EC50 values are based on the fitted curves. All reactions were performed in triplicate, the average values and standard errors are shown.
(1 picture or pasted object on this page, not shown here)

HcProRS [1] = tested on: HcProRS; set-up: method as in PMID 28501621; conditions: ATP/PPi exchange assay in vitro; read-out: IC50, HcProRS inhibitory activity; cited from earlier work
HcProRS versus ThrRS = tested on: HcProRS versus ThrRS; set-up: method as in PMID 28501621; conditions: reportedly; cited from earlier work
HcProRS [2] = biological target: HcProRS; set-up: method as in PMID 28501621; conditions: in the presence of Pro; cited from earlier work
[3] = 1 mM Pro, read-out: EC50 (Tm-based) with 1 mM L-Pro

| SMILES | Tm with 1 mM L-Pro (recombinant HcProRS; 1 mM Pro) | Tm without L-Pro (recombinant HcProRS) | EC50 (recombinant HcProRS; [3]) | ∆Tm without L-Pro (recombinant HcProRS) | ∆Tm with 1 mM L-Pro (recombinant HcProRS) | further results |
| --- | --- | --- | --- | --- | --- | --- |
| O=C(NC1Cc2ccccc2C1)c1nccnc1NC(=O)C1CCCCC1 [2a, 3-(cyclohexanecarboxamido)-N-(2,3-dihydro-1H-inden-2-yl)pyrazine-2-carboxamide, reference compound] | 73.35 °C | 63.15 °C | 3.74 ± 0.67 µM | – | – | EC50 (recombinant HcProRS; no Pro, read-out: EC50 (Tm-based) in the absence of Pro): 30.3 ± 3.63 µM; IC50 (HcProRS [1]): 0.012 µM; selectivity for HcProRS versus ThrRS (HcProRS versus ThrRS): 2500 fold; Kd (HcProRS [2]): 0.00076 µM |
| Nc1nccnc1C(=O)O [3-NH2-POA, 3-aminopyrazinoic acid, reference compound] | 59.50 °C | 55.87 °C | – | −0.28 °C | −0.70 °C | effect on Tm (in words) (recombinant HcProRS): no effect on Tm |
| O=C(NCc1ccc(F)cc1)c1nccnc1NCc1ccc(F)cc1 [3a] | 58.21 °C | 55.25 °C | – | −0.90 °C | −1.99 °C | – |
| O=C(NCc1ccccc1Cl)c1nccnc1NCc1ccccc1Cl [3b] | 64.92 °C | 56.05 °C | 3.77 ± 0.85 µM | −0.10 °C | +4.72 °C | fold lower EC50 relative to 3c (recombinant HcProRS; TSA EC50 with 1 mM Pro, relative to 3c): 2 fold; fold lower EC50 compared with 4h (recombinant HcProRS; TSA EC50 with 1 mM Pro, relative to 4h): 3.6 fold |
| Cc1ccccc1CNC(=O)c1nccnc1NCc1ccccc1C [3c] | 62.72 °C | 55.25 °C | 7.34 ± 1.66 µM | −0.90 °C | +2.52 °C | fold better (lower) EC50 compared with 4d (recombinant HcProRS; TSA EC50 with 1 mM Pro): 12.4 fold |
| NC(=O)c1nccnc1NCc1ccccc1 [4a] | 59.36 °C | 55.80 °C | – | −0.35 °C | −0.84 °C | – |
| NC(=O)c1nccnc1NCc1cccc(Cl)c1 [4b] | 60.42 °C | 55.38 °C | – | −0.77 °C | +0.22 °C | – |
| NC(=O)c1nccnc1NCc1ccc(Cl)c(Cl)c1 [4c] | 57.47 °C | 54.57 °C | – | −1.58 °C | −2.73 °C | – |
| Cc1ccccc1CNc1nccnc1C(N)=O [4d] | 63.33 °C | 55.91 °C | 91.1 ± 18.4 µM | −0.24 °C | +3.13 °C | – |
| NC(=O)c1nccnc1NCc1ccc(Cl)cc1 [4e] | 58.70 °C | 55.06 °C | – | −1.09 °C | −1.5 °C | – |
| COc1ccc(CNc2nccnc2C(N)=O)cc1 [4f] | 58.33 °C | 56.34 °C | – | +0.19 °C | −1.87 °C | – |
| Cc1ccc(CNc2nccnc2C(N)=O)cc1 [4g] | 59.09 °C | 55.76 °C | – | −0.39 °C | −1.11 °C | – |
| NC(=O)c1nccnc1NCc1ccccc1Cl [4h] | 62.47 °C | 57.04 °C | 13.6 ± 3.27 µM | – | +2.27 °C | fold better (lower) EC50 compared with 4d (recombinant HcProRS; TSA EC50 with 1 mM Pro): 6 fold and 7 fold |
| NC(=O)c1nccnc1NCc1ccccc1F [4i] | 60.30 °C | 55.46 °C | – | −0.69 °C | +0.10 °C | – |
| NC(=O)c1nccnc1NCc1ccccc1C(F)(F)F [4j] | 67.12 °C | 58.13 °C | 15.3 ± 1.04 µM | – | +6.92 °C | fold better (lower) EC50 compared with 4d (recombinant HcProRS; TSA EC50 with 1 mM Pro): 6 fold and 7 fold |
| COc1ccc(CNc2nccnc2C(N)=O)c(OC)c1 [4k] | 58.48 °C | 56.08 °C | – | −0.07 °C | −1.72 °C | – |
| O=C(O)c1cnccn1 [POA, pyrazinoic acid, reference compound] | 59.06 °C | 55.52 °C | – | −0.63 °C | −1.14 °C | effect on Tm (in words) (recombinant HcProRS): no effect on Tm |
| NC(=O)c1cnccn1 [PZA, pyrazinamide] | 59.04 °C | 56.06 °C | – | −0.09 °C | −1.16 °C | effect on Tm (in words) (recombinant HcProRS): no effect on Tm |
| O=C(O)[C@@H]1CCCN1 [Pro, proline] | – | – | – | – | – | increase of Tm of HcProRS by natural substrate Pro (recombinant HcProRS; 1 mM Pro, no compound): 4 °C |
